This note sets out measurements from patent publication US20230097992A1, “BIVALENT EGF FUSION TOXINS” (The Regents of the University of Colorado, a body corporate, priority 2020, published 2023).

Some results are limits rather than exact numbers.

Data set [1] deals with human EGFR-positive HNSCC cell line HN6. Description: CellTiter-Glo Luminescent Cell Viability Assay, HN6. The format is cell-based. The note with it: HN-6, read-out: IC50 to HNSCC cell lines (Erlotinib). Here is the method: (§1) FIG. 9 presents the data from in vitro efficacy analysis of the human EGF fusion toxins against human EGFR-positive HNSCC cell lines using CellTiter-Glo® Luminescent Cell Viability Assay (Promega) Y-axis: inhibition rate of the cell viability by determining the number of viable cells based on the quantification of the ATP present. X-axis: plated fusion toxin concentration. Cycloheximide (1.25 mg/mL) was used as a positive control. The negative control contained cells without fusion toxin. Data were from three individual experiments for each HNSCC cell line. Error bars indicate SD.
(§2) Y-axis: inhibition rate of the cell viability by determining the number of viable cells based on the quantification of the ATP present. […] Cycloheximide (1.25 mg/mL) was used as a positive control. […]
(§3) In vitro efficacy analysis of the human EGF fusion toxins (mEGF-IT and bEGF-IT) to the human HNSCC tumor cell lines was performed using CellTiter-Glo® Luminescent Cell Viability Assay (Promega Corporation, Madison, Wis.) as described previously (Zheng et al. (2017), Mol. Oncol. 11, 584-594, which is hereby incorporated by reference in its entirety). This cell viability assay measures the luminescence produced because of ATP production from metabolically active cells. […] The luminescence signals were recorded using BioTek Synergy LX Multi-Mode Reader.
(§4) IC50 was determined using nonlinear regression (curve fit) of Prism. […]
In general terms: ATP-based viability assays read luminescence as a measure of living cells.

In data set [2] the test system is HNSCC Cal27 subcutaneous xenografts. The data set is described as follows: Flank-xenograft solid tumor-bearing NSG mouse model. Particulars: for Median survival time: Subcutaneous xenograft model, fusion toxin or DT390 50 μg/kg IP, erlotinib 20 mg/kg gavage, once daily for 10 days from day 4. In kind it is in vivo, NSG mice. From the text: FIGS. 6A-6D presents the data from in vivo efficacy analysis of the human EGF fusion toxins against subcutaneous xenografts in NSG mice from two animal studies. FIG. 6A depicts the survival curve for NSG mice injected with Cal27 cells. […] FIGS. 6B-D depict tumor volume and weight data from the second study performed with a second cohort of NSG mice. […] Mice were euthanized on day 14 after tumor cell injection, when the first mouse in the DT390 group reached the end point. FIG. 6B: Tumor volumes were measured periodically, and the growth kinetics of the four groups were plotted. FIG. 6B depicts the tumor growth kinetics for a period of 14 days. FIG. 6C presents a bar graph representing the tumor weights at day 14. FIG. 6D depicts images of harvested tumors on day 14. Scale bar: 1 cm. FIGS. 6A-6C: *P<0.05; **P<0.01; ***P<0.001; ****P<0.0001; ns: not significant. The P-values for the survival curves in FIG. 6A were calculated using the Mantel-Cox log-rank test and that for the comparisons in FIGS. 6B and C were calculated using the two-tailed Student t-test (GraphPad Prism 9.0.0).
HNSCC tumor cells were injected via the following routes: 1) Flank-xenograft solid tumor model: eight million human HNSCC Cal27 tumor cells were subcutaneously injected into the right flank at day 0. The tumor-bearing mice were randomly divided into the four experimental groups when the tumors were palpable at day 3. The tumor volume was measured using digital vernier calipers every 3 days and calculated according to the formula: volume (mm^3)=(length×width×width)/2. 2) Tongue-orthotopic solid tumor model: eight million human HNSCC Cal27 tumor cells in 50 μl DMEM were injected into the tongue at day 0 following isoflurane anesthesia and the tumor-bearing mice were randomly divided into the planned four experimental groups at day 3. 3) Experimental metastasis model: one million human HNSCC Cal27 tumor cells in 200 μl DMEM were intravenously injected at day 0 via tail vein and the tumor-bearing mice were randomly divided into the four experimental groups at day 3.
(§5) Mono-EGF-IT (mEGF-IT), bEGF-IT, or DT390 was intraperitoneally injected (IP) starting at day 4 at 50 μg/kg, once daily for 10 consecutive days. […] The injected animals were observed daily for signs and symptoms of illness and scored at least twice weekly based on the parameters as previously reported (Peraino et al. (2013), J. Immunol. Methods 398-399, 33-43, which is hereby incorporated by reference in its entirety; Wang et al., 2015). The animals were humanely euthanized when the score exceeded the limit or the animal lost more than 15% of its pre-injection body weight. In addition, to assess whether the fusion toxins are toxic to the animals, NSG mice injected with the fusion toxins only were also included as control.
In vivo efficacy of the mEGF-IT and bEGF-IT against HNSCC was assessed using three immunodeficient tumor-bearing NSG mouse models. The first in vivo efficacy model was a flank-xenograft solid tumor-bearing NSG mouse model. Eight million Cal27 tumor cells were injected subcutaneously (SQ) into the right flank at day 0. The EGF fusion toxins were injected intraperitoneally (IP) starting on day 4 at 50 μg/kg daily for 10 consecutive days. […] The reduction of the tumor volumes, weights and sizes (FIGS. 6B-6D) were all consistent with the median survival prolongation.

In data set [3] the test system is human EGFR-positive HNSCC cell line UMSCC22B. The data set is described as follows: CellTiter-Glo Luminescent Cell Viability Assay, UMSCC22B. The note with it: read-out: IC50 to HNSCC cell lines (Erlotinib). In kind it is cell-based. Here is the method: as §1, §2, §3, §4
Data set [4] concerns human EGFR-positive HNSCC cell line UMSCC47. The data set is described as follows: CellTiter-Glo Luminescent Cell Viability Assay, UMSCC47. The note with it: read-out: IC50 to HNSCC cell lines (Erlotinib). The format is cell-based. As for the experimental part: as §1, §2, §3, §4
The test system of data set [5] is 14 human EGFR-positive HNSCC cell lines. The data set is described as follows: CellTiter-Glo in vitro efficacy, all examined HNSCC cell lines together. In kind it is cell-based.
Experimental: Cycloheximide (1.25 mg/mL) was used as a positive control. […] Data were from three individual experiments for each HNSCC cell line.
In vitro efficacy of the human EGF fusion toxins against HNSCC cell lines were assessed using CellTiter-Glo® Luminescent Cell Viability Assay.
The test system of data set [6] is human EGFR-positive HNSCC cell line Vu1365. Description: CellTiter-Glo Luminescent Cell Viability Assay, Vu1365. In kind it is cell-based. The note with it: read-out: IC50 to HNSCC cell lines (Erlotinib). As for the experimental part: as §1, §2, §3, §4
For data set [7], the system named is human EGFR-positive HNSCC cell line TU167. The data set is described as follows: CellTiter-Glo Luminescent Cell Viability Assay, TU167. Particulars: read-out: IC50 to HNSCC cell lines (Erlotinib). In kind it is cell-based. Here is the method: as §1, §2, §3, §4
The subject of data set [8] is 14 EGFR+ HNSCC cells lines. Description: Flow cytometry binding, all 14 EGFR+ HNSCC cell lines together. On the set-up: species or system human. Particulars: mean over the 14 EGFR+ HNSCC cell lines. Background: In flow cytometry, cells or beads pass a laser one at a time.
For another data set, the system named is NSG mice. The data set is described as follows: In vivo off-target toxicity in NSG mice.
Text: FIGS. 12A-C presents representative images of necropsy results for NSG mice treated with mono-EGF-IT or bi-EGF-IT without tumor cell injection. Mice were euthanized on day 13 after the first injection of the fusion toxins. The images show representative gross changes observed in the ear (FIG. 12A), liver (FIG. 12C) and gastrointestinal tract of a representative NSG mouse treated with mono-EGF-IT compared to a representative NSG mouse treated with bi-EGF-IT.
as §5
The main side effects of targeting EGFR are caused by off-target effects, because EGFR is expressed in many healthy tissues, include skin, liver, and gastrointestinal tract (Widakowich et al., (2007), Oncologist, 12, 1443-1455). […] To further assess these toxic effects, another in vivo toxicity study in non-tumor-bearing mice was performed. NSG mice were treated with mono-EGF-IT or bi-EGF-IT, without tumor cell injection.

Where [9] appears, read: non-tumor-bearing NSG mice, 13 days after the first injection.

For orientation: IC50 means the concentration needed to halve the response being measured. On to `C#Cc1cccc(Nc2ncnc3cc(OCCOC)c(OCCOC)cc23)c1` [Erlotinib], for which the IC50 in data set [1] was found to be 940 nM; in [3] it was 1740 nM; in [4] it was 4120 nM; in data set [6] it was 1540 nM; in [7] it was 410 nM. In addition, the Median survival time in data set [2] is above 60 days. Also, the “in vitro efficacy against the examined HNSCC cell lines” value in data set [5] is on record as “effective in vitro against all 14 examined HNSCC tumor cell lines”.
For orientation: Kd means the equilibrium constant for the complex coming apart. The compound “Bi-EGF IT: DT390 joined by G4S to two human EGF domains linked by (G4S)3, C-terminal 6×His tag; SEQ ID NO: 10” had a Median survival time in data set [2] above 60 days. Also, the Median survival time in data set [2] (listed as bEGF-IT) amounted to 61 days. The “decrease of tumor sizes and weights” value in [2] (flank xenograft, second cohort, day 14) is on record as “about 80%”. The Kd in [8] was 5.05 nM. The “adverse effects observed in treated mice” value in the data set on NSG mice (mice of the efficacy studies) is on record as “these adverse effects were not observed”. Moreover, the “general condition and skin” value with NSG mice (non-tumor-bearing NSG mice) is “but not bi-EGF-IT, were again generally unhealthy and lethargic with skin rashes”. In the data set with NSG mice (setting [9]), the “necropsy, gastrointestinal tract” value is listed as “normal appearance of the gastrointestinal tract” and the “necropsy, liver” value is “no significant abnormal findings”.
